Results published in patent US20090104240A1, “Dual Drug Formulations For Implantable Medical Devices For Treatment of Vascular Diseases” (Abbott Cardiovascular Systems Inc., priority 2007, published 2009).

Tests used:
[1] = tested on: vessel endothelialization; experiment: effect of corticosteroid on vessel endothelialization; format: in vivo; conditions: super high potency corticosteroid
[2] = tested on: inflammation; experiment: effect of corticosteroid on inflammation; format: in vivo; conditions: super high potency corticosteroid

## CC1CC2C3CCC4=CC(=O)C=CC4(C)C3(F)C(=O)CC2(C)C1(O)C(=O)CCl (centres unmarked) [clobetasone]
[1]
  vessel endothelialization: impairment of vessel endothelialization was observed
[2]
  effect with regard to inflammation: beneficial effect with regard to inflammation
